Values after ≈ are worked out from the molar mass of the structure shown.
Tests used:
Propionibacterium acnes = assay: Antibacterial ability against Propionibacterium acnes (MIC on BHI solid flat medium); assay type: cell-based; conditions: P. acnes, three days
Source text: To measure the antibacterial ability of cryptotanshinone against Propionibacterium acnes (P. acnes hereinafter), P. acnes kept in a cold storage in original state was cultivated on a BHI (Brain Heart Infusion) solid flat medium three days before the beginning of experiment. On the day of experiment, the P. acnes previously cultivated was inoculated into BHI solid flat medium containing the predetermined concentration of cryptotanshinone. Three days later after that, the minimum inhibition concentration (MIC) is obtained by measuring the number of P. acnes. The experiment was conducted in the same manner as experimental example 5, except for using benzoyl peroxide instead of cryptotanshinone.

5 α-reductase = assay: Inhibition of 5 α-reductase (conversion of 3H-testosterone to dihydrotestosterone, HPLC); assay type: biochemical
Protocol: 30 l of Phosphate Buffered Saline (PBS/pH 6.6) is mixed with 101 of dithiothreitol, NADPH, and testosterone, into which radioactive isotopes are combined (3H-1, 2, 4, 5, 6, 7-testosterone), 401 of extract liquid of enzyme 5 α-reductase, and 20 l of cryptotanshinone having 0.001% of concentration. Next, the composition mentioned above is left at the normal temperature for 10 minutes so that the materials in the composition react to each other, and then the amount of converted dihydrotestosterone are measured by HPLC and a measuring instrument of radioisotope.
Inhibition rate (%)=[…].
The experiments are conducted in the same manner as experimental example 1, except for changing the concentration of cryptotanshinone as described in Table 1.

ears of mice = assay: Anti-inflammation effect, arachidonic acid-induced ear edema; assay type: in vivo; conditions: for Thickness of ear After applying agent / Thickness of ear Before applying agent: agent 0.3% in ethanol once a day for four days, average of 7 mice; for Thickness of ear After applying agent: 2 mg/ear arachidonic acid, one hour after; for Restraint rate: agent 0.3% in ethanol, (A − B)/A × 100 against comparative group
Protocol: When inflammation is generated due to P. acnes, become more serious. Accordingly, the effect of alleviating the inflammation due to acne is verified by assessing the anti-inflammatory effect of cryptotanshinone. The experiment is conducted by a method using arachidonic acid (A. Crummey, G. P. Harper, E. A. Boyle and F. R. Mangan. Inhibition of arachidonic acid-induced ear oedema as a model for assessing topical anti-inflammatory compound. Agents and Actions 1987; 20:69-76).
After washing both ears of mice with ethanol before applying the agent, 201 o f cryptotanshinone having a concentration of 0.3% is applied to the ears of mice belonging to an agent application group once a day for four days, while 201 o f ethanol is applied to mice in a comparative group. One hour after the last application, ethanol is applied to the left ears of mice and 2 mg/ear of arachidonic acid is applied to the right ears of mice. One hour after that, the degree of ear edema is repeatedly measured by micrometer three times for each ear. The left ears of mice in the agent application group are used as a comparative group for measuring the degree of inflammation being induced by the agent.
The anti-inflammatory effect is assessed by the degree that the edema in the agent application group is restrained by cryptotanshinone on the basis of the comparative group to which arachidonic acid is applied. The number of mice used for each group is seven and the value is an average of those of 7 mice.
The experiments are conducted in the same manner as experimental example 6, except for respectively using stearyl glycyrrhetinate and indomethacin instead of cryptotanshinone.

Row | Compound | MIC (Propionibacterium acnes; Cutibacterium acnes, 72 h) | Inhibition rate (5 α-reductase; concentration of cryptotanshinone 0.001%) | Inhibition rate (5 α-reductase; concentration of cryptotanshinone 0.01%) | Inhibition rate (5 α-reductase; concentration of cryptotanshinone 0.1%) | Inhibition rate (5 α-reductase; concentration of cryptotanshinone 1.0%) | MIC (mole) (Propionibacterium acnes) | Thickness of ear After applying agent (ears of mice) | Thickness of ear Before applying agent (ears of mice) | Restraint rate (ears of mice)
1 | O=C(OOC(=O)c1ccccc1)c1ccccc1 [Benzoyl peroxide, reference compound] | 500 to 1000 µg/mL (≈ 2.06 to 4.13 mM) | – | – | – | – | – | – | – | –
2 | Cryptotanshinone | – | 19.1% | 36.0% | 45.9% | 100% | 100-500 ppm | 437 | 271 | 24.9%
3 | COc1ccc2c(c1)c(CC(=O)O)c(C)n2C(=O)c1ccc(Cl)cc1 [Indomethacin, indomethacin] | – | – | – | – | – | – | 391 | 273 | 46.6%
4 | CCCCCCCCCCCCCCCCCCOC(=O)[C@@]1(C)CC[C@]2(C)CC[C@]3(C)C(=CC(=O)[C@@H]4[C@@]5(C)CC[C@H](O)C(C)(C)[C@@H]5CC[C@]43C)[C@@H]2C1 [Stearyl Glycyrrhetinate, stearyl glycyrrhetinate] | – | – | – | – | – | – | 454 | 268 | 15.8%
